Literature values in patent publication US20230137840A1, “MINT MASK AND METHODS OF USE THEREOF” (Georgetown University, priority 2016, published 2023).

Experiments:
[1] = system: cough reflex; settings: menthol vapor; taste of sucrose
[2] = system: nasal resistance; settings: several studies
[3] = system: bronchi
[4] = molecular target: transient receptor potential ankyrin 1 (TRPA1) (Homo sapiens, UniProt O75762); settings: irritant-sensing channel
[5] = molecular target: transient receptor potential melastatin 8 (TRPM8) (Homo sapiens, UniProt Q7Z2W7); settings: present in cold-sensitive sensory neurons
[6] = system: cough; settings: guinea pigs
[7] = system: chemical irritants; settings: menthol vapor; irritants including acrolein, acetic acid, cyclohexanone
[8] = system: bronchial smooth muscle
[9] = system: upper airway resistance in normal subjects; settings: inhaled; ten normal subjects
[10] = system: cough after fiberoptic bronchoscopy; settings: premedication with 1% menthol inhalation
[11] = system: asthmatics; settings: nebulized, 10 mg twice daily for four weeks; 23 asthmatics
[12] = system: bronchoconstriction; settings: guinea pigs
[13] = system: patients with chronic cough; settings: menthol inhalation

Chain of transient receptor potential melastatin 8 (TRPM8) (Q7Z2W7 whole entry, species assumed): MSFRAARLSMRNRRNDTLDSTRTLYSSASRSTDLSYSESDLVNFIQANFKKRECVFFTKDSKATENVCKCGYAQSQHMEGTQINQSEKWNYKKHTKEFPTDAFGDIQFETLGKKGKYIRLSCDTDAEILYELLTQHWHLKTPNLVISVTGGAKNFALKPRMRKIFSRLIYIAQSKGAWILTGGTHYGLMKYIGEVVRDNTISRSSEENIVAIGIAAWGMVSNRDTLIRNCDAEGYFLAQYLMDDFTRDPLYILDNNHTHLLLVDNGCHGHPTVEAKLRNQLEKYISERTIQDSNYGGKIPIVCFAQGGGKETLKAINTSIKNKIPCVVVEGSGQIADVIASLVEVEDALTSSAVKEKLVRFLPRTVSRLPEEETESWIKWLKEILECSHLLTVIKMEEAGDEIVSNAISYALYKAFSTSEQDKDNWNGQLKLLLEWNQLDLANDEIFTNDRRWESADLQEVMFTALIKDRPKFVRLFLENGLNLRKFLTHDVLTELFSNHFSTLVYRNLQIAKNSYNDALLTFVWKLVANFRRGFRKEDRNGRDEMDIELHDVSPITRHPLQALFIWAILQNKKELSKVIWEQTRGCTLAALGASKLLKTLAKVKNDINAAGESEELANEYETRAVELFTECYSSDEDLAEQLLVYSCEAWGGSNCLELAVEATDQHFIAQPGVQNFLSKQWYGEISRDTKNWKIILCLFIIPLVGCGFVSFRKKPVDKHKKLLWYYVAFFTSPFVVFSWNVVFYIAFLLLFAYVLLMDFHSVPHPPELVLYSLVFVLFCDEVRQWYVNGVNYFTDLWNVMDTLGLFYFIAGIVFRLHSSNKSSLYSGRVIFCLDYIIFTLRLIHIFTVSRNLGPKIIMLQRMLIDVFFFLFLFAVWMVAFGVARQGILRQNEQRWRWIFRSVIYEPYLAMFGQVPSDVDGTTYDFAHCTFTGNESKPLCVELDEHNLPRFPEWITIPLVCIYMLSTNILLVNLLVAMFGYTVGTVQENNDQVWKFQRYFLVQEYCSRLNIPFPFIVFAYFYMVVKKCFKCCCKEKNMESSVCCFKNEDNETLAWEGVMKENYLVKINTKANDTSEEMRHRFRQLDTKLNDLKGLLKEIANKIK
Chain of transient receptor potential ankyrin 1 (TRPA1) (O75762 whole entry, species assumed): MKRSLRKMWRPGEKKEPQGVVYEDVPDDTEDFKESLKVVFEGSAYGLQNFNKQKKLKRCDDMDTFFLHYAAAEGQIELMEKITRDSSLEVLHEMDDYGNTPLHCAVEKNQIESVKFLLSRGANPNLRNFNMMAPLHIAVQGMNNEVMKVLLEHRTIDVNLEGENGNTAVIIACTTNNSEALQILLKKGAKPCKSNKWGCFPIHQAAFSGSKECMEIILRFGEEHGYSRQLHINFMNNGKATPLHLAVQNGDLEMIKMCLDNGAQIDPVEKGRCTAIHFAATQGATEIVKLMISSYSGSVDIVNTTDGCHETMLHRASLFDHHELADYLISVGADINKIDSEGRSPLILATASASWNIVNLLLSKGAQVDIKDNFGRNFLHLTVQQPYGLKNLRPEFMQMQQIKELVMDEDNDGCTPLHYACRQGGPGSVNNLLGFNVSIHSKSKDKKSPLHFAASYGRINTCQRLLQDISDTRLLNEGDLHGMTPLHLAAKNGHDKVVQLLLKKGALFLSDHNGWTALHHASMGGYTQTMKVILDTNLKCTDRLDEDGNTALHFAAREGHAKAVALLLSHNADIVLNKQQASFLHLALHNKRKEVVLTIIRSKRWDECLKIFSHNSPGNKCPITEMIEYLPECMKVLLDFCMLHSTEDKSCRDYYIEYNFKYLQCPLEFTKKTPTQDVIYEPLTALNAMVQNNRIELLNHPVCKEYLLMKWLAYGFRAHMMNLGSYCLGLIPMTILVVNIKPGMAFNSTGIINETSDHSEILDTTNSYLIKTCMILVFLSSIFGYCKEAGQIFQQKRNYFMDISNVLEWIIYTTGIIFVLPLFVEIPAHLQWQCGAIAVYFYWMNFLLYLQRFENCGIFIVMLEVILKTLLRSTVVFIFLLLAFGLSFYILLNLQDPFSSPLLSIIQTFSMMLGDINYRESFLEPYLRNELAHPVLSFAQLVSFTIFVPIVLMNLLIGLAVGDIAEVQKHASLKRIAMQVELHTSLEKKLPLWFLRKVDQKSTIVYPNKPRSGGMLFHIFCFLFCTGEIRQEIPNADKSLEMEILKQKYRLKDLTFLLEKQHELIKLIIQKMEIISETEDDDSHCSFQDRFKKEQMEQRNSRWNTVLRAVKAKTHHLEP

Compound	cough reflex to capsaicin challenge [1]	effect on nasal resistance [2]	relaxation of bronchi preconstricted with acetylcholine or potassium chloride [3]	interaction with TRPA1 [4]	interaction with TRPM8 [5]	antitussive (cough suppressant) effect [6]	reactivity to chemical irritants [7]	bronchial contraction due to high extracellular potassium [8]	bronchial contraction due to methacholine [8]	effect on upper airway resistance [9]	effect on cough after fiberoptic bronchoscopy [10]	diurnal variation in peak expiratory flow rate (PEER) [11]	effect on FEV1 (forced expiratory volume at 1 second) [11]	effect on VC (vital capacity) [11]	use of metered dose inhalers [11]	wheezing episodes [11]	capsaicin-induced bronchoconstriction [12]	neurokinin A-induced bronchoconstriction [12]	cough sensitivity to inhaled capsaicin [13]	effect on inspiratory flows [13]
OC[C@H]1O[C@@](CO)(O[C@H]2O[C@H](CO)[C@@H](O)[C@H](O)[C@H]2O)[C@@H](O)[C@@H]1O [sucrose]	reduced cough reflex	–	–	–	–	–	–	–	–	–	–	–	–	–	–	–	–	–	–	–
CC(C)[C@@H]1CC[C@@H](C)C[C@H]1O [menthol, (1R,2S,5R)-2-Isopropyl-5-methylcyclohexanol]	reduced cough reflex	no effect	relaxes	interacts	interacts	antitussive (cough suppressant) effects	reduces reactivity	inhibits	inhibits	no effect	no effect	decreased	no effect	no effect	reduced use	reduced wheezing episodes	attenuates	attenuates	reduced cough sensitivity	had an effect
